Patent publication US20080090812A1 (priority 2004, published 2008)
“Also recorded” adds a separate entry of the source. Where a SMILES comes first, the peptide text is derived from it. The star is where a group is joined. Cbz = O=C(OCc1ccccc1)*; CH2F = FC*

What was measured:
[1] = test system: GADD45; assay: Intracellular staining of GADD45 expression in B-CLL cells by flow cytometry; type: cell-based, human; details: B-CLL cells versus no-drug control (FIG. 4b)
Experimental: (§1) B-CLL cells were cultured for 4h and 48h in the presence or absence of one of the drugs under investigation. Cells were harvested by centrifugation and incubated with 10 μL of anti-CD19-RPE-cy5 conjugated antibody. Subsequently the cells were washed with phosphate buffered saline (PBS) at pH 7.2 and then prepared for intracellular staining of phosphorylated p53 and GADD45 (Santa Cruz Biotechnology, Santa Cruz, Calif.) using a commercially available kit (DAKO, Ely, UK). A FITC-labeled secondary antibody was added to the cells (DAKO) and after a final washing step the cells were resuspended in 0.5 mL of 1% paraformaldehyde prior to flow cytometric analysis using a FACScan flow cytometer (Becton Dickinson, Calif.).
(§2) Phosphorylation of p53 and expression of GADD45 were measured in control B-CLL cell samples with no cytotoxic agent added and in B-CLL cell samples in the presence of either chloambucil or SJG-136.

[2] = test system: phosphorylated p53; assay: Intracellular staining of phosphorylated p53 in B-CLL cells by flow cytometry; type: cell-based, human; details: 10 μM chlorambucil or 25 nM SJG-136, versus no-drug control (FIG. 4a)
Experimental: as §1, §2

[3] = test system: B-CLL cells; assay: Flow cytometry-based in vitro apoptosis assay (FSC/SSC, Annexin V) in primary B-CLL cells; type: cell-based, human; details: for mean LD50 in previously treated versus untreated patient sub-set: 34 patient cohort (FIG. 5); for degree of apoptosis in the cell culture: B-CLL cultures of the p53/GADD45 experiment (FIG. 4b)
Source text: Peripheral blood samples from 34 patients with B-CLL (20 untreated and 14 treated) and 10 age-matched normal controls were obtained with the patients' informed consent. B-CLL was defined by clinical criteria as well as cellular morphology and the co-expression of CD19 and CD5 in lymphocytes simultaneously displaying restriction of light-chain rearrangement. Staging was based on the Binet classification system.^14 None of the previously treated patients had received therapy for at least three months prior to this study.
Freshly isolated peripheral blood lymphocytes (1×10^6/ml) were cultured in Eagles medium (Invitrogen, Paisley, UK) supplemented with 100 units/ml penicillin, 100 μg/ml streptomycin and 10% fetal calf serum. Lymphocytes were incubated at 37° C. in a humidified 5% carbon dioxide atmosphere in the presence of SJG-136 (10^−10−10^−7 M). […]
In this study changes in forward light scatter (FSC) and side light scatter (SSC) characteristics were used to quantify apoptotic and viable cell populations as described previously.^16-18 Typically, lymphocytes show a reduction in FSC (a function of cytoplasmic shrinkage) and an increase in SSC (due to increased granularity) when they undergo apoptosis.^19 The quantitation of apoptosis using an FSC/SSC gating strategy in conjunction with back gating of R-phycoerythrin cyanine 5 (RPE-cy5) labeled CD19+ (Dako) or R-phycoerythrin labeled CD3+ (Dako) lymphocytes allowed simultaneous acquisition of data in viable and apoptotic B-lymphocyte and T-lymphocyte sub-populations, respectively. All LD50 and LD90 values (the concentration of the relevant chemotheraputic agent required to kill 50% and 90% of cells respectively) were derived from the dose-response curves. Duplicate samples were assessed using fluorescein (FITC)-labeled Annexin V to confirm the presence of apoptotic cells in the cell cultures and to validate the FSC/SSC quantitation method.^20
The data obtained in these experiments were evaluated using the equal variance and paired Student's t-test, and correlation coefficients were calculated from least squares linear regression plots. LD50 values were calculated from line of best-fit analysis of the dose response curves. All statistical analyses were performed using Graphpad Prism 3.0 software (Graphpad Software Inc., San Diego, Calif.).
A flow cytometry-based in vitro apoptosis detection assay was used to determine whether SJG-136 could induce apoptotic cell death in B-CLL cells. The characteristic changes in the forward and side light scatter resulting from cellular shrinkage described previously were used to define apoptosis.^19 In addition, Annexin V labeling was also performed in order to verify the light scatter data.

[4] = test system: B-CLL cells; assay: as above; type: cell-based, human; details: for mean LD50 in previously treated versus untreated patient sub-set: expanded cohort of 46 patients (FIG. 10)
[5] = test system: calf thymus DNA; details: after incubation for 18 hours at 37° C.; cited from earlier work
[6] = test system: caspase-3; assay: SJG-136 induced caspase-3 activation in B-CLL cells (PhiPhiLux G1D2 substrate, flow cytometry); type: cell-based, human; details: inhibitor final concentration 2 μM, SJG-136-treated B-CLL cell cultures
Experimental: B-CLL cells were incubated at 37° C. in a humidified 5% carbon dioxide atmosphere in the presence of SJG-136 (10^−10−10^−7 M) or fludarabine (10^−7″10^−5 M) for 12, 24 and 48 h. Cells were then harvested by centrifugation and labeled with CD19 RPE-cy5 conjugated antibody. Subsequently the cells were incubated for 1 h at 37° C. in the presence of the PhiPhiLux™ G1D2 substrate (Calbiochem, Nottingham, UK). The substrate contains two fluorophores separated by a quenching linker sequence that is cleaved by active caspase-3. Once cleaved the resulting products fluoresce green and can be quantified using flow cytometry. In additional experiments the caspase-8 inhibitor, Z-IETD-FMK, or the caspase-9 inhibitor, Z-LEHD-FMK, (Cambridge Bioscience, Cambridge, UK) were added to SJG-136-treated cell cultures (final concentration 2 μM) in order to determine whether either of these inhibitors was able to abrogate the apoptotic effects of SJG-136 in B-CLL cells.

[7] = 34 B-CLL patient samples, 48 h exposure
[8] = expanded cohort, 46 B-CLL patient samples

C=C1C[C@H]2C=Nc3cc(OCCCOc4cc5c(cc4OC)C(=O)N4CC(=C)C[C@H]4C=N5)c(OC)cc3C(=O)N2C1 [SJG-136]
GADD45 expression [1]: only slightly higher than in the control experiment
phosphorylated p53 (p-p53) [2]: none of the B-CLL cells (n=9) treated with SJG-136 phosphorylated p53
mean LD50 value (±SD) [3, 7]: 9.06 nM
mean LD90 value (±SD) [3, 7]: 43.09 nM
patient samples in which apoptosis was induced ([3]; 34 patient cohort): all 34 patient samples
mean LD50 in previously treated versus untreated patient sub-set [3]: no effect
degree of apoptosis in the cell culture [3]: greater degree of apoptosis than either the control experiment or the chlorambucil experiment
patient samples in which apoptosis was induced ([4]; 46 patient cohort): all 46 patient samples
mean LD50 in previously treated versus untreated patient sub-set [4]: no effect
mean LD50 value (±SD) [4, 8]: 0.19 nM
mean LD90 value (±SD) [4, 8]: 38.63 nM
increase in the thermal denaturation of calf thymus DNA [5]: 33.6 °C

Nc1nc(F)nc2c1ncn2[C@@H]1O[C@H](CO)[C@@H](O)[C@@H]1O [fludarabine, reference compound]
mean LD50 in previously treated versus untreated patient sub-set [3]: significantly higher mean LD50 value
in vitro sensitivity of samples from two treated patients with known p53 mutation ([3]; compared with remaining patient samples): high degree of in vitro resistance
mean LD50 in previously treated versus untreated patient sub-set [4]: significantly higher mean LD50 value

CC[C@H](C)[C@H](NC(=O)OCc1ccccc1)C(=O)N[C@@H](CCC(=O)OC)C(=O)N[C@H](C(=O)N[C@@H](CC(=O)OC)C(=O)CF)[C@@H](C)O [Z-IETD.FMK, Z-IETD-FMK] (Cbz-IE(OMe)TD(OMe)-CH2F)
abrogation of SJG-136-induced caspase-3 activation by added caspase inhibitor [6]: not

O=C(O)CCCc1ccc(N(CCCl)CCCl)cc1 [chlorambucil]
GADD45 expression [1]: much higher; also recorded: marked increase in GADD45 expression
phosphorylated p53 (p-p53) [2]: an increase in phosphorylated p53
degree of apoptosis in the cell culture [3]: significantly increased over the control experiment

COC(=O)CC[C@H](NC(=O)[C@H](CC(C)C)NC(=O)OCc1ccccc1)C(=O)N[C@@H](Cc1cnc[nH]1)C(=O)N[C@@H](CC(=O)OC)C(=O)CF [Z-LEHD-FMK] (Cbz-LE(OMe)HD(OMe)-CH2F)
abrogation of SJG-136-induced caspase-3 activation by added caspase inhibitor [6]: partially abrogated
